Assays:
[1] = Trough plasma concentration of compound on day 3 (LC-MS) in the piroxicam-accelerated colitis study; format: in vivo, mice; conditions: trough after the 3rd day of dosing, Compound 1 90 mg/kg SC BID, Compound 2 30 mg/kg SC QD, FIG. 1
From the text: The mice used were female 6 week old FVBMDR1a(+/+) and FVBMDR1a(−/−). Mice were normalized for body weight (BW) upon reaching 7 weeks of age, at which time their diet was switched to powdered chow containing piroxicam for a total of 10 days. BW and diarrhea score was monitored for 21 days (including the 10 days of piroxicam feeding). Blood was taken for trough compound levels on day 3 and at takedown. Rat IgG levels (anti-IL23 or isotype-matched control) were quantitated by ELISA on terminal blood draw. At takedown, colons were photographed and weight/length ratio calculated. Two colons from each group were formaldehyde fixed for future pathology assessment and disease scoring. Remaining colons from each group were dissociated for flow cytometry analysis of infiltrating immune cells.
Compound 1 was dosed at 90 mg/kg in 10% Cremophor-EL, SC, BID, and Compound 2 was dosed at 30 mg/kg in 1% HPMC, SC, QD. Vehicle 1 was 10% Cremophor-EL and was administered SC, BID. Vehicle 2 was 1% HPMC administered SC, QD. Anti-mouse IL-23 Clone G23-8 (Rat IgG1) was dosed at 300 μg/mouse, QD/QOD; Isotype-matched control Clone HRPN (Rat IgG1) was dosed at 300 μg/mouse, QD/QOD.
Blood was taken at trough from all Compound 1- and Compound 2-dosed mice, and plasma analyzed by Liquid Chromatography-Mass Spectroscopy to determine the concentration. Trough blood was taken after the 3rd day of dosing (FIG. 1).

FVBMDR1a(−/−) mice = test: 21 Day Piroxicam-Accelerated MDR1a−/− Model Of Colitis: colon weight-to-length ratio; format: in vivo; conditions: combined therapy with anti-IL-23; only the combined therapy significantly improved the W:L ratio
From the text: Mice of the FVB strain lacking a functional MDR1 gene (also known as ABCB1, P-gp or CD243) develop a spontaneous infammatory bowel disease. This disease can be accelerated by adding the drug piroxicam to their food. FVB mice bearing a functional MDR1 gene are resistant to this disease.
Piroxicam is included in the mouse food for ten days, and the health of the mouse is monitored for a total of 21 days both during and after the piroxicam feeding. Symptoms monitored during this time include severity of diarrhea and changes in body weight.
The colon inflammation manifests itself as a thickening of the colon wall and shortening of the colon itself. The severity of the disease can thus be assessed via the ratio of the colon's weight to its length.
The mice used were female 6 week old FVBMDR1a(+/+) and FVBMDR1a(−/−). Mice were normalized for body weight (BW) upon reaching 7 weeks of age, at which time their diet was switched to powdered chow containing piroxicam for a total of 10 days. BW and diarrhea score was monitored for 21 days (including the 10 days of piroxicam feeding). Blood was taken for trough compound levels on day 3 and at takedown. Rat IgG levels (anti-IL23 or isotype-matched control) were quantitated by ELISA on terminal blood draw. At takedown, colons were photographed and weight/length ratio calculated. […]

SMILES	Trough plasma concentration vs minimal concentration established for 98% receptor coverage [1]	synergy with anti-IL-23 to improve colon inflammation (W:L ratio) (FVBMDR1a(−/−) mice)
CC(C)(C)c1ccc(S(=O)(=O)Nc2ccc(Cl)cc2C(=O)c2cc[n+]([O-])cc2)cc1 [Compound 1]	met or exceeded the minimal concentration established for 98% receptor coverage	synergized
Cc1cc(NS(=O)(=O)c2ccc(C(C)(C)C)c(F)c2)n(-c2cccc3nc(N)ccc23)n1 [Compound 2]	met or exceeded the minimal concentration established for 98% receptor coverage	synergized
